18 compounds from the supplement of paper PMC5579334 can be followed below.

Test [1] concerns YST-1. The test is described as follows: drug sensitivity score (DSS, CellTiter-Glo viability, 72 h) (DSS (dimensionless)); higher = more sensitive; extreme values may be limits of the assay. In short, it runs like this: (§1)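 After seeding 750–1000 cells per well of MPNST cell lines or primary human Schwann cells into 384-well plates preprinted with each compound at five concentrations in 10-fold steps, plates were kept 72 h at 37 °C, 5% CO2. Viability was read as CellTiter-Glo ATP luminescence relative to vehicle and positive-control wells, with duplicates averaged where present. The data were fitted with four-parameter logistic models. Drug sensitivity score and relative IC50, censored at the top concentration, derive from the fits, and percent inhibition refers to the top concentration.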

Test [2] has as its system HS-PSS. The test is described as above. In short, it runs like this: as §1
Test [3] deals with HS-Sch-2. The test is described as above. In short, it runs like this:
as §1

Test [4] has as its system HS-PSS. Kind of test: drug sensitivity score (DSS, CellTox-Green cytotoxicity, 72 h) (DSS (dimensionless)); higher = more cytotoxic; extreme values may be limits of the assay. The procedure, abridged:
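For 72 h at 37 °C, MPNST cell lines and primary human Schwann cells were exposed in 384-well plates to five 10-fold compound dilutions. CellTox-Green, added before seeding at a final 1:1000 dilution, gave fluorescence from DNA released by disrupted cells. Signals were scaled to vehicle and positive-control wells, cultures failing plate quality control were left out, and four-parameter logistic fits were applied. Relative IC50 and drug sensitivity score were derived from the fits, with IC50 censored at the top concentration.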

The test system of test [5] is YST-1. The test is described as follows: % inhibition of CellTiter-Glo viability at highest tested concentration (72 h), relative to DMSO and benzethonium chloride controls; higher = more inhibition. In short, it runs like this: as §1
For orientation: In ATP-based viability assays light output follows the ATP content of the culture.

In test [6] the test system is HS-PSS. The description is as above. In short, it runs like this: as §1
Test [7] relates to HS-Sch-2. Described as above. The procedure, abridged: as §1

By % inhibition is commonly meant the change of the read-out against control, counted positive when it falls.

For the compound `CN(C)C(=N)NC(=N)N` [Metformin] (max concentration tested 100000 nM), the drug sensitivity score amounted to 0 in test [1], 0.59 in test [2], 0 in test [3] and 0 in test [4]. Moreover, the “% inhibition” value in test [5] is -0.71%; in test [6], 19.4%; in test [7], 7.35%.
Turning to `CNC(=O)c1nn(C)c2c1C(C)(C)Cc1cnc(Nc3ccc(N4CCN(C)CC4)cc3)nc1-2` [Milciclib] (max concentration tested 10000 nM), the drug sensitivity score in test [1] amounted to 16.6; in test [2] it was 9.77; in test [3] it was 9.72; in test [4], 0.17. In addition, the “% inhibition” value is 101% in test [5], 79.3% in test [6] and 96% in test [7].
As for `FC(F)(F)c1ccc(/C=C/c2nc(COc3ccc(CCCCn4ccnn4)cc3)co2)cc1` [Mubritinib] (max concentration tested 1000 nM), the drug sensitivity score in test [1] is 6.65; in test [2], 17.4; in test [3] it was 12.9; in test [4] it was 0. The “% inhibition” value came out at 28.4% in test [5], 74.8% in test [6] and 62.9% in test [7].
On to `OC(CC1c2ccccc2-c2cncn21)C1CCCCC1` (stereo unspecified) [NLG919] (max concentration tested 10000 nM), for which the drug sensitivity score in test [1], in test [2], in test [3] and in test [4] was 0 throughout. Moreover, the entries for the “% inhibition” value in test [5], in test [6] and in test [7] were 10.1%, 7.55% and 0.68%, respectively.
As to `Cc1cc(OCc2nnc(SC3CCCC3)n2-c2cccnc2)ccc1-c1ccc(S(C)(=O)=O)cc1` [NMS-873] (max concentration tested 10000 nM), the drug sensitivity score in test [1] turned out to be 9.52; in test [2] it was 22.9; in test [3], 19.2; in test [4] it was 5.58. Moreover, the “% inhibition” value in test [5] was 99.9%; in test [6], 99.9%; in test [7] it was 101%.
Take `CCN1CCN(Cc2ccc(-c3cc4c(N[C@H](C)c5ccccc5)ncnc4[nH]3)cc2)CC1` [NVP-AEE788] (max concentration tested 2500 nM): the drug sensitivity score in test [1] was found to be 1.87; in test [2] it was 1.04; in test [3], 0; in test [4] it was 0. The “% inhibition” value in test [5] was 22.3%; in test [6] it was 22.7%; in test [7] it was 2.96%.
Turning to `Nc1ncnc2c1c(-c1cccc(OCc3ccccc3)c1)cn2[C@H]1C[C@@H](CN2CCC2)C1` [NVP-AEW541] (max concentration tested 10000 nM), the drug sensitivity score was determined as 13 in test [1], 5.83 in test [2], 8.08 in test [3] and 7.08 in test [4]. Moreover, the “% inhibition” value in test [5] worked out at 98.3%; in test [6], 100%; in test [7], 99.8%.
For `COc1ccc(-c2ccc3ncc4c(c3c2)n(-c2ccc(N3CCNCC3)c(C(F)(F)F)c2)c(=O)n4C)cn1` [NVP-BGT226] (max concentration tested 1000 nM), the drug sensitivity score amounted to 19.7 in test [1], 15.3 in test [2], 21.4 in test [3] and 3.94 in test [4]. In addition, the figures for the “% inhibition” value in test [5], in test [6] and in test [7] were 99.5%, 99.1% and 98.2%, respectively.
For `CNC(=O)c1ccc(-c2cnc3ncc(Cc4ccc5ncccc5c4)n3n2)cc1F` [NVP-INC280] (max concentration tested 1000 nM), the drug sensitivity score was 0.19 in test [1], 0 in test [2], 1.29 in test [3] and 0 in test [4]. In addition, the “% inhibition” value was determined as 12.3% in test [5], 7.48% in test [6] and 6.7% in test [7].
In the case of `Cc1cc(-c2ncc(CC(=O)Nc3ccc(-c4cnccn4)cn3)cc2C)ccn1` [NVP-LGK974] (max concentration tested 10000 nM), the drug sensitivity score in test [1] was found to be 0; in test [2], 3.51; in test [3] it was 3; in test [4], 0. Also, the “% inhibition” value in test [5] came to 1.59%; in test [6], 45.4%; in test [7], 52.2%.
For `NC(=O)c1cccc2cn(-c3ccc(C4CCCNC4)cc3)nc12` (stereo unspecified) [Niraparib] (max concentration tested 10000 nM), the drug sensitivity score was 7.91 in test [1], 4.28 in test [2], 2.37 in test [3] and 0.21 in test [4]. Further, the “% inhibition” value was 54.5% in test [5], 50.4% in test [6] and 26.4% in test [7].
For `COc1ccc(C[C@H](NC(=O)[C@H](C)NC(=O)CN2CCOCC2)C(=O)N[C@@H](Cc2ccccc2)C(=O)[C@@]2(C)CO2)cc1` [ONX-0914] (max concentration tested 10000 nM), the drug sensitivity score is 18.1 in test [1], 17.6 in test [2], 21.7 in test [3] and 17.5 in test [4]. The “% inhibition” value in test [5] stood at 101%; in test [6] it was 100%; in test [7] it was 101%.
Take `O=C(Nc1ccc(OC(F)(F)F)cc1)c1sccc1NCc1ccnc2ccccc12` [OSI-930] (max concentration tested 2500 nM): the drug sensitivity score came to 0 in test [1], 2.5 in test [2], 0.3 in test [3] and 0 in test [4]. Also, the “% inhibition” value in test [5] was 1.07%; in test [6], 23.2%; in test [7], 17.9%.
On to `CC(=O)c1cnc2ccc(-c3cc(Cl)c(O)c(Cl)c3)nc2c1N[C@H]1CC[C@H](CN(C)C)CC1` [OTSSP167] (max concentration tested 1000 nM), for which the drug sensitivity score in test [1] amounted to 23.8; in test [2] it was 4.33; in test [3], 18.5; in test [4], 0.29. For the same compound, the “% inhibition” value in test [5] was 100%; in test [6], 83.1%; in test [7] it was 101%.
In the case of `Cc1sc2c(c1C)C(c1ccc(Cl)cc1)=N[C@@H](CC(=O)Nc1ccc(O)cc1)c1nnc(C)n1-2` [OTX015] (max concentration tested 10000 nM), the drug sensitivity score in test [1] turned out to be 14.5; in test [2], 10.7; in test [3], 14.6; in test [4], 0. Besides, the “% inhibition” value in test [5] was 69.2%; in test [6], 59.5%; in test [7], 75.4%.
For `COc1ncc(-c2ccc3nccc(-c4ccnnc4)c3c2)cc1NS(=O)(=O)c1ccc(F)cc1F` [Omipalisib] (max concentration tested 1000 nM), the drug sensitivity score in test [1] came to 23.6; in test [2] it was 10.6; in test [3], 9.45; in test [4], 0. In addition, the “% inhibition” value is 94% in test [5], 64.3% in test [6] and 83.8% in test [7].
In the case of `CC(C)c1cc(C(=O)N2Cc3ccc(CN4CCN(C)CC4)cc3C2)c(O)cc1O` [Onalespib] (max concentration tested 2500 nM), the drug sensitivity score is 12.6 in test [1], 13.2 in test [2], 21.4 in test [3] and 6.31 in test [4]. The “% inhibition” value amounted to 75.8% in test [5], 81.9% in test [6] and 101% in test [7].
For `COC[C@H](NC(=O)c1cnc(C)s1)C(=O)N[C@@H](COC)C(=O)N[C@@H](Cc1ccccc1)C(=O)[C@@]1(C)CO1` [Oprozomib] (max concentration tested 2500 nM), the drug sensitivity score in test [1] is 18.4; in test [2], 14.3; in test [3], 26.3; in test [4], 7.1. Further, the “% inhibition” value turned out to be 101% in test [5], 98.3% in test [6] and 102% in test [7].
